We go through eight molecules from patent publication US10065937B2, “FLT3 receptor antagonists” (INSERM (INSTITUT NATIONAL DE LA SANTÉ ET DE LA RECHERCHE …, priority 2014, dated 2018).

The target in one experiment is T1, SNAP tagged-FLT3 (Homo sapiens, UniProt P36888).
T1 construct: expressed in transfected cells
T1 sequence (P36888 27-993): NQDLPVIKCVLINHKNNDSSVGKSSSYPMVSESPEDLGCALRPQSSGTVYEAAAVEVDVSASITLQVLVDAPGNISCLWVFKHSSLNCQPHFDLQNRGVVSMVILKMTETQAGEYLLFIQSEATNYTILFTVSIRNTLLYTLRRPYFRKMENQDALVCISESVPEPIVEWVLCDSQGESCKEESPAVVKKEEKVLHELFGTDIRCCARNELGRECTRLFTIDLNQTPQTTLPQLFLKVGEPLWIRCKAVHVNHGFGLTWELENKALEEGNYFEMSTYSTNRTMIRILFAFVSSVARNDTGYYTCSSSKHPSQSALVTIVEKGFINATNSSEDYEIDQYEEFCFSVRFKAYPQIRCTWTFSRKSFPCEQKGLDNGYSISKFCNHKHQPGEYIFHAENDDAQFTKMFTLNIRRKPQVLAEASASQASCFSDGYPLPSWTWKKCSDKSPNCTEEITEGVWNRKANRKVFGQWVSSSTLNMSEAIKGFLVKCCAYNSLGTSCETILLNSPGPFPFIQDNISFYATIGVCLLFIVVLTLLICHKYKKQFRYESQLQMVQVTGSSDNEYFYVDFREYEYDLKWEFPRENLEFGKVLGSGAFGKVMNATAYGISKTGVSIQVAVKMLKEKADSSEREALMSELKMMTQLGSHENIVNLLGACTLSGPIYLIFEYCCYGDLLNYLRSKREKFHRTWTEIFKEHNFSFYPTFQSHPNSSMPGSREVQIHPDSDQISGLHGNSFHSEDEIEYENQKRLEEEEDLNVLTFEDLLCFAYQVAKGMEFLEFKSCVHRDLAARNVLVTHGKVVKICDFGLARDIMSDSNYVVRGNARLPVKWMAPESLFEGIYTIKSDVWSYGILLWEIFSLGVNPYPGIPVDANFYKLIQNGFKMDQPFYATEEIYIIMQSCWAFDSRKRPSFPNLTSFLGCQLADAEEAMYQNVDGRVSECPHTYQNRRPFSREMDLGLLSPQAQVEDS
As to the kind of experiment: Tag-lite competition binding assay (Red-FL displacement, HTRF). The conditions noted are these: cells expressing SNAP tagged-FLT3, 0.5 nM Red-FL. On the procedure:
Covalent Labeling of Cells Expressing the SNAP Tagged-FLT3
Labelling of Adherent Cells
Cell culture medium was removed from the 96 well plates and 100 nM of SNAP-Lumi4 Tb previously diluted in the Tag-lite labelling medium, was added under 100 μl per well, and further incubated 1 h at 37° C. under 5% CO2. The excess of SNAP-Lumi4-Tb was removed by washing each well 4 times with 100 μl of Tag-lite labelling medium.
Labelling of a Batch of Cells and Cells Freezing
After removal of the cell culture medium from a flask containing adherent cells, 5 ml of Tag-lite labelling medium containing 100 nM of SNAP-Lumi4-Tb was added to the flask and incubated for 1 h at 37° C. under 5% CO2. The excess of SNAP-Lumi4-Tb was removed by washing each flask 4 times with 5 ml of Tag-lite labelling medium. Cells were detached, pelleted by centrifugation (5 min at 1,300 rpm) and suspended in a cell culture medium containing 10% DMSO. Then, cells were distributed at 5 millions cells per vial and slowly frozen to −80° C. in isopropanol then transferred in liquid nitrogen for storage.
Prior to their use, the frozen cells were thawed quickly at 37° C., the medium was removed from the vials and the cells were suspended in the Tag-lite labelling medium at a cell-density of 1 million cells/ml.
Tag-lite binding assays were performed 24 h after transfection on fresh cells. When using frozen cells, binding assays were carried out immediately after cells thawing. When the assay was carried out on adherent cells in 96-well plates, the cell density was 50,000 cells per well, while a density of 10,000 cells per well was used to carry out binding assays in suspension in 384-well small volume plates.
Competition Binding Assay
Both Red-FL and the compounds to be tested were diluted in Tag-lite labelling medium. Cells were incubated with 0.5 nM Red-FL in the presence of increasing concentrations of compounds to be tested. In the plates containing labelled cells, 50 μl (or 10 μl in 384-well plates) of Tag-lite labelling medium, 25 μl (or 5 μl in 384-well plates) of compounds to be tested were added and incubated for 1 h at Room temperature prior to the addition of 25 μl (or 5 μl in 384-well plates) of Red-FL. Plates were then incubated at room temperature for 4 h or overnight before signal detection.
(§1) Signal was detected using an advanced fluorescence microplate reader (RUBYstar, BMG Labtech) equipped with a HTRF optic module allowing a donor excitation at 337 nm and a signal collection both at 665 nm and 620 nm. A frequency of 20 flashes/well is selected for the laser excitation. The signal was collected both at 665 nm and 620 nm using the following time-resolved settings: delay 50 μs, integration time 400 μs. HTRF ratios were obtained by dividing the acceptor signal (665 nm) by the donor signal (620 nm) and multiplying this value by 10,000. The 10,000 multiplying factor is used solely for the purpose of easier data handling.
(§2) Data Analysis and Statistics
(§3) Kd values of the fluorescent ligand were determined from saturation curves of the specific binding using GraphPad Prism software (GraphPad Software, Inc., San Diego, Calif.). Ki values of the compounds were determined from binding competition experiments according to the Cheng and Prusoff equation. EC50 and IC50 values of the rh-FL and compounds were determined from sigmoidal dose-response curves using GraphPad Prism software (GraphPad Software, Inc., San Diego, Calif.).
A general note: TR-FRET usually uses a lanthanide donor and a delayed reading to cut background.

The target in the next experiment is T2, FLT3 receptor (Homo sapiens, UniProt P36888).
T2 construct: Auto-phosphorylation assays were performed on RS4-11 cells that express endogenous FLT3 receptor; endogenous in cells; host or cells: RS4-11 cells
T2 sequence (P36888 27-993): T1 sequence (P36888 27-993)
As to the kind of experiment: Auto-phosphorylation competition assay on RS4-11 cells (HTRF). The conditions noted are these: RS4-11 cells expressing endogenous FLT3, 0.1 μM rh-FL; read-out: IC50, μM Autophosphorylation. It is filed as cell-based. The method, then:
Auto-Phosphorylation Assays
Auto-phosphorylation assays were performed on RS4-11 cells that express endogenous FLT3 receptor. A density of 50,000 cells per well was used to carry out this assay in suspension in 384-well small volume plates to determine the degree of phosphorylation of FLT3. In the aim to discover antagonist compounds and to develop this assay, we were determined the efficiency of FL on RS4-11 cells.
Both rh-FL and the compounds to be tested were diluted in Tag-lite labelling medium. Cells were incubated with 0.1 μM of rh-FL in the presence of increasing concentrations of compounds to be tested. In the plates containing RS4-11 cells (5 μl/well), 5 μl of compounds to be tested were added and incubated for 1 h at Room temperature prior to the addition of 2 μl of rh-FL at 0.1 μM. After incubation of 3 minutes at room temperature of rh-FL, 4 μl of lysis buffer were added and incubated for 2 h at room temperature. A mix of anti-FLT3 and an anti-TYR-969 FLT3 antibodies labeled with Lumi4-Tb and d2 respectively (4 μl) diluted in Tag-lite labelling medium, were added on cell lysate. Plates were then incubated at room temperature for 2 h or overnight before signal detection.
as §1, §2, §3

As usually defined, the IC50 is the concentration that inhibits the measured activity by half.

For the molecule `O=C(Nc1cc(Cl)ccc1O)c1cccc(S(=O)(=O)N2CCCCC2)c1` [Example 1, N-(5-chloro-2-hydroxyphenyl)-3-(piperidin-1-ylsulfonyl) benzamide], the IC50 at SNAP tagged-FLT3 is 11.8 µM; at FLT3 receptor, 58 µM.

On to `O=S(=O)(c1cccc(-c2nnc(-c3cc(Cl)ccc3O)[nH]2)c1)N1CCCCC1` [Example 4, 4-chloro-2-(5-(3-(piperidin-1-ylsulfonyl)phenyl)-4H-1,2,4-triazol-3-yl)phenol], for which the IC50 at SNAP tagged-FLT3 stood at 26 µM; on FLT3 receptor, 20 µM.

Regarding `O=S(=O)(c1cccc(-c2ncc(-c3cc(Cl)ccc3O)[nH]2)c1)N1CCCCC1` [Example 5, 4-chloro-2-(2-(3-(piperidin-1-ylsulfonyl)phenyl)-1H-imidazol-5-yl)phenol], the IC50 at SNAP tagged-FLT3 stood at 33 µM; at FLT3 receptor it was 17 µM.

Consider `NCCCN(C1CCCCC1)S(=O)(=O)c1cccc(-c2nc3cc(Cl)ccc3o2)c1` [Example 7, N-(3-aminopropyl)-3-(5-chloro-1,3-benzoxazol-2-yl)-N-cyclohexylbenzene-1-sulfonamide], for which the results for the IC50 on SNAP tagged-FLT3 and on FLT3 receptor were 10 µM and 63 µM, respectively.

Take `O=S(=O)(c1cccc(-c2nc3cccc(O)c3[nH]2)c1)N1CCCCC1` [Example 8, 2-[3-(1-piperidylsulfonyl)phenyl]-3H-benzimidazol-4-ol]: the IC50 on SNAP tagged-FLT3 amounted to 98 µM; on FLT3 receptor, 68 µM.

As to `O=C(Nc1cc(Cl)ccc1-c1nnn[nH]1)c1cccc(S(=O)(=O)N2CCCCC2)c1` [Example 9, N-[5-chloro-2-(1H-1,2,3,4-tetrazol-5-yl)phenyl]-3-(piperidine-1-sulfonyl)benzamide], the IC50 on SNAP tagged-FLT3 worked out at 175 µM; on FLT3 receptor, 148 µM.

As to `O=C(Nc1cccc(S(=O)(=O)N2CCCCC2)c1)c1cc(Cl)ccc1O` [Example 10, 5-Chloro-2-hydroxy-N-[3-(piperidine-1sulfonyl)phenyl]benzamide], the IC50 on SNAP tagged-FLT3 turned out to be 4.6 µM; on FLT3 receptor it was 116 µM.

With `CN(C1CCCCCC1)S(=O)(=O)c1cccc(C(=O)Nc2cc(Cl)ccc2O)c1` [Example 11, N-(5-chloro-2-hydroxyphenyl)-3-[cycloheptyl(methyl)sulfamoyl]benzamide], the IC50 on SNAP tagged-FLT3 is 27.5 µM; on FLT3 receptor it was 41 µM.
